Results on three molecules are retold here after PMC5267425, “Identification of small molecule modulators of HIV-1 Tat and Rev protein accumulation” (Retrovirology, 2017).

A value given as a limit tells only on which side of the number the result lay.

A word on the CC50: it is the concentration at which the toxic effect on the cells reaches its halfway point. One may read the viability as a per cent measure of how many cells are alive, often set against a control.

Series [1] is described as follows: Trypan blue exclusion, PBMCs. The format is cell-based, human. Particulars: human, peripheral blood mononuclear cells (PBMCs). The procedure:
(§1) To examine the effect of compounds on viral replication, studies were carried out in peripheral blood mononuclear cells (PBMCs). PBMCs were isolated from healthy (HIV-uninfected) volunteer blood donors as described by Dobson-Belaire et al.. Informed consent was obtained from participants in accordance with the guidelines for conduct of clinical research at the University of Toronto and St. Michael’s Hospital, Toronto, Ontario, Canada. Stored PBMCs were thawed, washed with RPMI 1640 complete medium and cultured in RPMI 1640 complete medium containing 2 μg/mL of PHA-L (Sigma-Aldrich) and 20 U/mL of IL-2 (BD Pharmingen) for 72 h. Subsequently, cells were counted and a portion of the cells was separated to another tube for uninfected control treatments. The remaining PBMCs were resuspended in media containing HIV-1 BaL at a multiplicity of infection (MOI) of approximately 0.01 and infected by spinoculation, following which cells were washed twice with room temperature RPMI 1640 complete medium and resuspended to a concentration of 5 × 10^5 cells/mL in complete RPMI 1640 containing 20 U/mL of IL-2. Compounds were added to infected PBMCs or uninfected control PBMCs. Azidothymidine (AZT, Sigma-Aldrich) was used as control treatment at a final concentration of 3.74 μM. On day 4 post infection, culture medium was replenished with the compounds and IL-2 in fresh complete RPMI 1640. On days 2, 4, 6 and 8 post infection, culture supernatant was harvested, virus lysed by adjusting to 1% TritonX-100 and stored at −20 °C for p24 antigen ELISA. A fraction of the culture was harvested to assess percent cell viability by trypan blue exclusion using Glasstic slides (Kova). Relative percent cell viability in compound treated samples versus DMSO-control treated samples was calculated as follows: (total viable cells/total cells)compound/(total viable cells/total cells)DMSO.

In series [2] the test system is PBMCs. As to the kind of experiment: Trypan blue exclusion, PBMCs. The format is cell-based, human. Particulars: PBMCs. As to the method: as §1
For series [3], the system named is HeLa rtTA HIV∆Mls cells. As to the kind of experiment: XTT cell metabolism/viability assay, HeLa. The class given is cell-based. Particulars: for cell viability at dose required to reduce Gag expression by >80%: XTT and Trypan blue exclusion, 791 20 µM, 833 10 µM. As to the method:
(§2) Effects of compound treatment on cellular metabolism was assessed by an XTT-based in vitro toxicology assay kit (Sigma-Aldrich) or Trypan blue exclusion (Life Technologies) as proxy for degree of cytotoxicity and expressed relative to DMSO control treatment. For measurement of cell viability using XTT, culture media was removed after 24, 72, and 96 h of compound treatment, replaced with 20% XTT solution and incubated at 37 °C in a 5% CO2 humidified incubator for 2–6 h, and relative cell viability was measured in compound treated cells relative to DMSO-treated cells. Cell viability measurements in CEM-GXR cells are described above.
(Tetrazolium dyes change colour on reduction, which living cells bring about.)

The nature of series [4]: XTT assay, SupT1 24STNLESG cells. The class given is cell-based. Particulars: human. The procedure:
Additional file 1: Figure S1. 791 and 833 Suppress HIV-1 Gene Expression in SupT1 24NESLG Cell Line. a Schematic of HIV-1 provirus used to generated the stably transduced SupT1 cell line. b Effect of 791 and 833 on Gag expression in SupT1 NLESG cells. Cells were treated with indicated concentrations of 791/833 then HIV-1 expression induced by PMA addition. Media harvested after 24 h was subsequently assayed using Gag (p24) ELISA. Cell viability was measured by an XTT assay. 892 was not active in this cell line at the concentrations tested Additional file 2: Figure S7. Effect of compounds on CEM-GXR cell viability. Evaluation of 791, 833, and 892 on CEM-GXR cell viability in the Guava ViaCount assay. Cells were analyzed after 24 h incubation with the compounds at the indicated concentrations ranging between 0–47 μM (791), 0–5 μM (833), or 0–62.5 μM (892). Results are expressed as the percentage (%) of viable cells relative to DMSO treatment ±SEM of two independent experiments performed in triplicate. […] Images are cropped to show a representative field of view. b The dose range of the compounds which inhibit HIV-1 GagGFP expression in HeLa rtTA HIVGagGFP C7 cells was measured by mean fluorescence intensity and expressed relative to fluorescence intensity in DMSO-treated samples (N ≥ 3, *p ≤ 0.05, **p ≤ 0.01, and ***p ≤ 0.001). […]

In series [5] the test system is HeLa rtTA HIV∆Mls cells. Nature of the series: Trypan blue exclusion, HeLa. The class given is cell-based. Particulars: up to 10 µM. As to the method: as §2

As for `COc1ccc(C=NNC(=O)c2ccccc2O)cc1O` [Compound 892, 2-hydroxy-N′-(3-hydroxy-4-methoxybenzylidene)benzohydrazide], the CC50 in series [1] was 4.5 µM. Further, in series [2], the “toxicity at concentrations required to block HIV-1 replication” value is given as “displayed toxicity”.
Turning to `Cc1cc(NCc2cccnc2)n2ncc(-c3ccc(Cl)cc3)c2n1` [Compound 791, 3-(4-chlorophenyl)-5-methyl-N-(3-pyridinylmethyl)pyrazolo[1,5-a]pyrimidin-7-amine], in series [3] (1, 3 and 4 days post-treatment, in comparison to 833 and 892 (Figure S5)), the “toxicity on extended culture (cell proliferation by XTT)” value is “reduced toxicity”. Moreover, the “cell viability at dose required to reduce Gag expression by >80%” value in series [3] is listed as “not affected”. For the same molecule, the CC50 at 24 h in series [4] is above 60 µM. Also, the CC50 in series [1] is above 10 µM. The viability at 6 days post infection in series [1] (PBMCs, 6 days post infection, concentrations up to 7.5 µM, read-out: cell viability) was above 80%.
Take `O=C(NC(=S)NNC(=O)c1ccccc1O)c1ccc(-c2ccccc2)cc1` [Compound 833, N-([2-(2-hydroxybenzoyl)hydrazino]carbonothioyl}-4-biphenylcarboxamide]: the “cell viability at dose required to reduce Gag expression by >80%” value in series [3] is “not affected”. Moreover, the “mitochondrial function by XTT” value in series [3] (up to 10 µM) is given as “some reduction in mitochondrial function”. In addition, in series [5], the Trypan blue exclusion entry is “no change”. This molecule also gave a CC50 at 24 h in series [4] above 20 µM. Further, the cytotoxic concentration (CC50) in series [1] came to 3 µM. For the same molecule, the “toxicity at concentrations required to block HIV-1 replication” value in series [2] is recorded as “displayed toxicity”.
